Among the test systems are A549 NSCLC; ACHN renal; BT-549 breast; HS 578T breast; MDA-MB-231 breast; MOLT-4 leukemia; NCI/ADR-RES ovarian; SF-268 CNS; TK-10 renal; UACC-62 melanoma.
What all share (assay): NCI anticancer screen, dose series, 48 h

Values joined by “and” are separate entries in the source; they are usually repeats but may differ in a detail not shown here. Identical values can stand only once.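 Dose response: 5 concentrations. Exposure: 48 h. Format: 96-well plates. Endpoint: linear interpolation; highest concentration if not reached. At the GI50, growth is halved. TGI is the concentration that stops growth completely.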

As for `O=C1/C(=C/c2ccccc2)CCC/C1=C\c1ccccc1`, the GI50 in the assay with A549 NSCLC is 7.66 µM and 17.5 µM; with ACHN renal, 6.72 µM and 9.22 µM; in the assay on HS 578T breast, 43.2 µM; with MDA-MB-231 breast, 18.5 µM; in the assay with MOLT-4 leukemia, 15.1 µM and 11.1 µM; with NCI/ADR-RES ovarian it was 17.5 µM. Moreover, the GI50 in the assay with SF-268 CNS was 6.72 µM and 5.81 µM; in the assay with TK-10 renal, 6.12 µM; with UACC-62 melanoma, 6.34 µM. In addition, the TGI was 17.8 µM and 45.7 µM and 42.5 µM in the assay with A549 NSCLC; 12.1 µM and 29.2 µM and 26.2 µM in the assay on ACHN renal; 10.9 µM and 24 µM in the assay with BT-549 breast; 28.1 µM and > 100 µM in the assay with HS 578T breast; 11.6 µM and 68.1 µM in the assay with MDA-MB-231 breast; 36.5 µM and 71.1 µM and 70.2 µM in the assay with MOLT-4 leukemia. Moreover, the TGI is 17.1 µM and 95.5 µM with NCI/ADR-RES ovarian; 13.3 µM and 29.5 µM and 20.3 µM in the assay with SF-268 CNS; 11.9 µM and 33.2 µM and 40 µM with TK-10 renal; 11.5 µM and 28.4 µM and 29.9 µM in the assay on UACC-62 melanoma.
Consider `Oc1cc(O)c2c(=S)cc(-c3ccc(Cl)cc3)oc2c1`, for which the GI50 in the assay with A549 NSCLC was 6.58 µM; in the assay on ACHN renal, 2.61 µM; in the assay with BT-549 breast it was 3.38 µM; in the assay with HS 578T breast it was 3.56 µM; with MDA-MB-231 breast, 2 µM; in the assay on MOLT-4 leukemia, 3.76 µM. Besides, the GI50 in the assay on NCI/ADR-RES ovarian was 2.8 µM; in the assay with SF-268 CNS, 3.23 µM; in the assay with TK-10 renal it was 4.08 µM; in the assay with UACC-62 melanoma, 3.01 µM. In addition, the TGI was 36.8 µM with A549 NSCLC; 11.1 µM in the assay on ACHN renal; 12.6 µM with BT-549 breast; 40.3 µM in the assay with HS 578T breast; 6.54 µM in the assay on MDA-MB-231 breast; 34.2 µM in the assay on MOLT-4 leukemia. Also, the TGI was 10.7 µM in the assay on NCI/ADR-RES ovarian, 21.3 µM in the assay with SF-268 CNS, 19.1 µM with TK-10 renal and 14.2 µM in the assay on UACC-62 melanoma.
Turning to `COc1ccc(C2=C(c3cc(OC)c(OC)c(OC)c3)C(=O)CC2)cc1`, the GI50 in the assay on A549 NSCLC was 0.193 µM; with ACHN renal, 1.8 µM; in the assay with BT-549 breast, 0.919 µM; with HS 578T breast, 0.0827 µM; with MDA-MB-231 breast it was 0.62 µM; in the assay on MOLT-4 leukemia, 0.405 µM. Besides, the GI50 with NCI/ADR-RES ovarian is 0.0704 µM; in the assay on SF-268 CNS it was 0.668 µM; with TK-10 renal, 12.3 µM; in the assay with UACC-62 melanoma, 0.0812 µM. Also, the TGI was greater than 100 µM with A549 NSCLC; greater than 100 µM in the assay with ACHN renal; greater than 22.7 µM in the assay with BT-549 breast; greater than 100 µM in the assay with MDA-MB-231 breast; greater than 100 µM in the assay on MOLT-4 leukemia; greater than 100 µM in the assay with NCI/ADR-RES ovarian. Also, the TGI with SF-268 CNS is greater than 33.8 µM; in the assay with TK-10 renal, greater than 100 µM; in the assay on UACC-62 melanoma, greater than 100 µM.
Turning to `C#CCNC(=O)CC[C@]1(C)[C@H]2CC[C@@H]3[C@@H]([C@@](C)(O)CCC=C(C)C)CC[C@@]3(C)[C@]2(C)CC[C@H]1C(=C)C`, the GI50 with A549 NSCLC was 42.7 µM; with ACHN renal it was 25.3 µM; with BT-549 breast it was 29 µM; with HS 578T breast, 50.2 µM; in the assay with MDA-MB-231 breast, 22.3 µM; with MOLT-4 leukemia, 17 µM. In addition, the GI50 was 40.5 µM in the assay with NCI/ADR-RES ovarian, 22 µM in the assay with SF-268 CNS, 43.7 µM in the assay with TK-10 renal and 22.5 µM with UACC-62 melanoma. The TGI in the assay with A549 NSCLC is greater than 100 µM; with ACHN renal, greater than 100 µM; with BT-549 breast, greater than 100 µM; in the assay on HS 578T breast it was greater than 100 µM; with MDA-MB-231 breast, 67.5 µM; with MOLT-4 leukemia, 47.3 µM. Besides, the TGI was greater than 100 µM in the assay with NCI/ADR-RES ovarian, 57.1 µM in the assay on SF-268 CNS, greater than 100 µM in the assay with TK-10 renal and greater than 100 µM in the assay with UACC-62 melanoma.
On to `COC(=O)Nc1nc2cc3c(cc2s1)OCCO3`, for which the GI50 in the assay with A549 NSCLC, in the assay on ACHN renal, with BT-549 breast, with HS 578T breast, in the assay with MDA-MB-231 breast and in the assay with MOLT-4 leukemia was greater than 50 µM each time. The GI50 with NCI/ADR-RES ovarian, with SF-268 CNS, with TK-10 renal and in the assay on UACC-62 melanoma was greater than 50 µM each time. The TGI with A549 NSCLC, in the assay on ACHN renal, with BT-549 breast, in the assay with HS 578T breast, in the assay with MDA-MB-231 breast and with MOLT-4 leukemia was greater than 50 µM each time. The TGI with NCI/ADR-RES ovarian, with SF-268 CNS, with TK-10 renal and with UACC-62 melanoma was greater than 50 µM throughout.
As for `O=c1[nH]c(SCc2c(Cl)c(Cl)c(Cl)c(Cl)c2Cl)nc(=S)[nH]1`, the TGI with A549 NSCLC is greater than 100 µM; in the assay on ACHN renal it was greater than 100 µM; in the assay on BT-549 breast, greater than 100 µM; in the assay on HS 578T breast, greater than 100 µM; in the assay with MDA-MB-231 breast, greater than 100 µM; with MOLT-4 leukemia, 21.3 µM. For the same compound, the TGI with NCI/ADR-RES ovarian, in the assay on SF-268 CNS, in the assay with TK-10 renal and in the assay on UACC-62 melanoma was greater than 100 µM in each case.
As to `COc1cccc(C2C3=C(COC3=O)N(CCO)c3cc4c(cc32)OCCO4)c1` (stereo not given), the GI50 in the assay with A549 NSCLC was 0.207 µM; with ACHN renal, 0.769 µM; in the assay with BT-549 breast, 0.255 µM; in the assay on HS 578T breast, 0.114 µM; with MDA-MB-231 breast it was 0.257 µM; with MOLT-4 leukemia, 0.195 µM. Moreover, the GI50 was 0.137 µM in the assay with NCI/ADR-RES ovarian, 0.355 µM in the assay with SF-268 CNS and 0.891 µM in the assay with TK-10 renal. Further, the TGI with A549 NSCLC was greater than 50 µM; with ACHN renal, greater than 50 µM; in the assay on BT-549 breast, greater than 10.9 µM; with HS 578T breast, 22.1 µM; in the assay on MDA-MB-231 breast, 34.5 µM; in the assay on NCI/ADR-RES ovarian it was 0.727 µM. Also, the TGI with SF-268 CNS and in the assay on UACC-62 melanoma was greater than 50 µM each time.
`O=C(O)CCCCn1cnc2c(=S)nc[nH]c21`: the TGI in the assay with A549 NSCLC, in the assay with ACHN renal, in the assay with BT-549 breast, in the assay with HS 578T breast, in the assay on MDA-MB-231 breast and in the assay on MOLT-4 leukemia was greater than 100 µM in each case. Moreover, the TGI with NCI/ADR-RES ovarian, in the assay with SF-268 CNS, with TK-10 renal and in the assay with UACC-62 melanoma was greater than 100 µM each time.

Source of the values: PubChem BioAssay (NCI).
